The values that follow come from patent publication US11998566B1, “Method of synthesizing a silver nanoparticle composition using an extract of Salsola tetrandra” (KING FAISAL UNIVERSITY, priority 2023, dated 2024).

Assay [1] concerns A. fumigatus. The experiment in a line: time kill assay. The format is cell-based, Aspergillus fumigatus. Conditions: 50 μg/mL; exposure for 24 hours; FIG. 1. The method, then: FIG. 1 is a graph showing time-kill curves of A. fumigatus following exposure to ST-AgNPs and amphotericin B for 24 hours (values are expressed as means±SD)
(§1) Several preliminary in vitro experiments were performed to confirm the potent antifungal potential of the green biosynthesized silver nanoparticles (ST-AgNPs) against A. fumigatus. […] Additionally, the inhibitory effect of the antifungals AMB and ST-AgNPs was also examined using light microscopy (FIGS. 2A-2C).

The test system of assay [2] is A. fumigatus. The experiment in a line: light microscopy of mycelial growth / germination. The note with it: FIG. 2C. The class given is cell-based, Aspergillus fumigatus. The method, then: FIGS. 2A-2C show differences in the mycelial growth of A. fumigatus in 2A) control 2B) following exposure to ST-AgNPs and 2C) following exposure to amphotericin B. (conventional antifungal agent).
as §1

The structures appear in SMILES notation.

For the compound `C[C@@H]1[C@H](O)[C@@H](C)/C=C/C=C/C=C/C=C/C=C/C=C/C=C/[C@H](O[C@@H]2O[C@H](C)[C@@H](O)[C@H](N)[C@@H]2O)C[C@@H]2O[C@](O)(C[C@@H](O)C[C@@H](O)[C@H](O)CC[C@@H](O)C[C@@H](O)CC(=O)O[C@H]1C)C[C@H](O)[C@H]2C(=O)O` [amphotericin B], the “action on the growth of Aspergillus cells (time kill assay)” value in assay [1] is “fungistatic action”. In addition, the mycelial growth entry in assay [2] is reported as “substantially reduced”.
